# Data published in the supplement of paper PMC10883282.
# ± gives the standard deviation of the averaged measurements.
# System: KHOS-NP
# Test: relative viability vs DMSO control (72 h) (fraction); higher = more viable cells
# In short: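 Sarcoma cell lines in 384-well plates, seeded to reach 80–90% confluence, were given compound after 24 h and kept 72 h at 37 °C, 5% CO2, with 0.1% DMSO vehicle and a 5 µM positive control. Relative viability came from ATPLite as percent growth, averaged over up to triplicate wells. On the rescaled values, 1 equals full and 0 equals none.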
Compound,relative viability (0.00017 µM),relative viability (0.00051 µM),relative viability (0.00152 µM),relative viability (0.00457 µM),relative viability (0.01372 µM),relative viability (0.04115 µM),relative viability (0.1235 µM),relative viability (0.3704 µM),relative viability (1.111 µM),relative viability (3.333 µM),relative viability (10 µM),relative viability (2 pM),relative viability (5 pM),relative viability (15 pM),relative viability (50 pM),relative viability (0.00014 µM),relative viability (0.00041 µM),relative viability (0.0012 µM),relative viability (0.0037 µM),relative viability (0.011 µM),relative viability (200 fM),relative viability (600 fM)
Cc1cc(Nc2ncnc3ccc(NC4=NC(C)(C)CO4)cc23)ccc1Oc1ccn2ncnc2c1 [Tucatinib],1.09 ± 0.023,1.14 ± 0.021,1.13 ± 0.014,1.11 ± 0.029,1.09 ± 0.018,1.09 ± 0.025,1.12 ± 0.017,1.1 ± 0.017,1.12 ± 0.016,1.09 ± 0.02,1.11 ± 0.014,,,,,,,,,,,
COc1cc2c(cc1O)CCN[C@]21CS[C@@H]2c3c(OC(C)=O)c(C)c4c(c3[C@H](COC1=O)N1[C@@H]2[C@H]2c3c(cc(C)c(OC)c3O)C[C@@H]([C@@H]1O)N2C)OCO4 [Trabectedin],,,,,,,,,,,,1.11 ± 0.026,1.11 ± 0.03,1.11 ± 0.028,1.09 ± 0.018,1.04 ± 0.029,0.0507 ± 0.011,0.0847 ± 0.0079,0.102 ± 0.0031,0.0529 ± 0.0034,1.1 ± 0.03,1.12 ± 0.022
C[C@@H]1COCCN1c1cc(-c2ccnn2C)c2ccnc(-c3ccn[nH]3)c2n1,1.07 ± 0.036,1.07 ± 0.012,1.07 ± 0.025,1.06 ± 0.029,1.06 ± 0.02,1.09 ± 0.026,1 ± 0.037,0.898 ± 0.025,0.538 ± 0.042,0.377 ± 0.0063,0.281 ± 0.026,,,,,,,,,,,
Cc1cc(C)c(/C=C2\C(=O)Nc3ccccc32)[nH]1 [Semaxanib],1.04 ± 0.035,1.04 ± 0.025,1.05 ± 0.028,1.05 ± 0.037,1.03 ± 0.041,1.05 ± 0.02,1.04 ± 0.03,1 ± 0.027,0.989 ± 0.027,1.002 ± 0.008,0.927 ± 0.025,,,,,,,,,,,
Cc1ccc(F)c(NC(=O)Nc2ccc(-c3cccc4[nH]nc(N)c34)cc2)c1 [Linifanib],1.1 ± 0.012,1.1 ± 0.016,1.09 ± 0.027,1.09 ± 0.024,1.05 ± 0.016,1.07 ± 0.015,1.052 ± 0.0063,1.05 ± 0.039,1.03 ± 0.037,0.968 ± 0.019,1.01 ± 0.059,,,,,,,,,,,
CNC(=O)c1ccc(-c2cnc3ncc(Cc4ccc5ncccc5c4)n3n2)cc1F [Capmatinib],1.1 ± 0.021,1.08 ± 0.016,1.098 ± 0.0065,1.06 ± 0.023,1.094 ± 0.0089,1.1 ± 0.032,1.09 ± 0.021,1.07 ± 0.035,1.09 ± 0.023,1.09 ± 0.021,1.09 ± 0.026,,,,,,,,,,,
CN1CCC(COc2cnc(-c3cccc(Cn4nc(-c5cccc(C#N)c5)ccc4=O)c3)nc2)CC1 [Tepotinib],1.09 ± 0.054,1.11 ± 0.024,1.11 ± 0.012,1.09 ± 0.013,1.08 ± 0.012,1.08 ± 0.026,1.07 ± 0.015,1.03 ± 0.023,1.01 ± 0.023,0.995 ± 0.021,0.975 ± 0.014,,,,,,,,,,,
N#CC[C@H](C1CCCC1)n1cc(-c2ncnc3[nH]ccc23)cn1 [Ruxolitinib],1.04 ± 0.024,1.04 ± 0.028,1.05 ± 0.03,1.03 ± 0.036,1.02 ± 0.033,1.03 ± 0.038,1.015 ± 0.0094,0.995 ± 0.062,0.988 ± 0.044,0.9816 ± 0.0032,0.809 ± 0.031,,,,,,,,,,,
CC(C)(C)c1cc(NC(=O)Nc2ccc(-c3cn4c(n3)sc3cc(OCCN5CCOCC5)ccc34)cc2)no1 [Quizartinib],1.13 ± 0.012,1.1 ± 0.027,1.1 ± 0.019,1.08 ± 0.035,1.096 ± 0.0028,1.09 ± 0.013,1.069 ± 0.0099,1.07 ± 0.034,1.05 ± 0.025,0.998 ± 0.067,0.99 ± 0.032,,,,,,,,,,,
COc1c(OCCCN2CCOCC2)ccc2c1N=C(NC(=O)c1cnc(N)nc1)N1CCN=C21 [Copanlisib],1.1 ± 0.042,1.1 ± 0.029,1.11 ± 0.015,1.088 ± 0.0075,1.075 ± 0.01,1.04 ± 0.029,1.003 ± 0.01,0.907 ± 0.021,0.523 ± 0.014,0.198 ± 0.0088,0.146 ± 0.011,,,,,,,,,,,
Cc1ccc(NC(=O)c2ccc(CN3CCN(C)CC3)cc2)cc1Nc1nc(-c2cccnc2)cs1 [Masitinib],1.05 ± 0.026,1.05 ± 0.035,1.089 ± 0.0014,1.083 ± 0.01,1.06 ± 0.028,1.09 ± 0.025,1.04 ± 0.052,1.01 ± 0.024,0.857 ± 0.018,0.612 ± 0.051,0.185 ± 0.0074,,,,,,,,,,,
Cn1cc(-c2cc3c(N4CCN(c5ncc([C@@](C)(N)c6ccc(F)cc6)cn5)CC4)ncnn3c2)cn1 [Avapritinib],1.021 ± 0.0094,1.05 ± 0.031,1.02 ± 0.027,1.04 ± 0.029,1.03 ± 0.017,1.03 ± 0.015,1 ± 0.022,0.948 ± 0.041,0.861 ± 0.024,0.685 ± 0.033,0.586 ± 0.048,,,,,,,,,,,
O=C(Cc1ccc(-c2ccc(OCCN3CCOCC3)cc2)cn1)NCc1ccccc1 [KX2-391],1.106 ± 0.0028,1.11 ± 0.033,1.11 ± 0.031,1.11 ± 0.036,1.09 ± 0.03,1.039 ± 0.01,0.586 ± 0.013,0.456 ± 0.026,0.378 ± 0.0089,0.376 ± 0.0087,0.364 ± 0.028,,,,,,,,,,,
CO[C@H]1C[C@@H]2CC[C@@H](C)[C@@](O)(O2)C(=O)C(=O)N2CCCC[C@H]2C(=O)O[C@H]([C@H](C)C[C@@H]2CC[C@@H](OP(C)(C)=O)[C@H](OC)C2)CC(=O)[C@H](C)/C=C(\C)[C@@H](O)[C@@H](OC)C(=O)[C@H](C)C[C@H](C)/C=C/C=C/C=C/1C [Ridaforolimus],1.11 ± 0.033,1.1 ± 0.011,1.09 ± 0.015,1.1 ± 0.016,1.08 ± 0.03,1.08 ± 0.033,1.07 ± 0.033,1.06 ± 0.045,1.07 ± 0.026,1.02 ± 0.032,1.01 ± 0.02,,,,,,,,,,,
